Experimental data as given in ChEMBL document CHEMBL1201862, “PubChem BioAssay data set” (2004).
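Five concentrations, 48 hours, 96-well plates. GI50 = concentration required for 50% inhibition of growth.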 Activity calls are given as the source filed them. Rule as the data show it: active = GI50 up to about 1.1 µM and inactive = higher.

How the values were obtained:
Assay in all cases: NCI tumour cell line growth inhibition, 48 h
A549 = test system: A549
ACHN = test system: ACHN
CCRF-CEM = test system: CCRF-CEM
COLO 205 = test system: COLO 205
HCT-116 = test system: HCT-116
HT-29 = test system: HT-29
LOX IMVI = test system: LOX IMVI
M14 = test system: M14
NCI-H226 = test system: NCI-H226
RPMI-8226 = test system: RPMI-8226
SK-OV-3 = test system: SK-OV-3
SNB-19 = test system: SNB-19
SW-620 = test system: SW-620
U-251 = test system: U-251
UACC-62 = test system: UACC-62
EKVX = test system: EKVX
KM12 = test system: KM12
NCI-H522 = test system: NCI-H522
SF-539 = test system: SF-539
SNB-75 = test system: SNB-75

Measured: GI50

CCCCCCCCCCCCCCCCCC(=O)NCCCNCCCNC(=O)CCCCCCCCCCCCCCCCC
inactive: A549 > 100 µM | ACHN > 100 µM | CCRF-CEM > 100 µM | COLO 205 > 100 µM | HCT-116 > 100 µM | HT-29 > 100 µM | LOX IMVI > 100 µM | M14 > 100 µM | NCI-H226 > 100 µM | RPMI-8226 > 100 µM | SK-OV-3 > 100 µM | SNB-19 > 100 µM | SW-620 > 100 µM | U-251 > 100 µM | UACC-62 > 100 µM

COc1cc2nc(-c3cccs3)nc(Cl)c2cc1OC
inactive: A549 > 100 µM | ACHN > 100 µM | COLO 205 > 100 µM | EKVX 18.6 µM | HCT-116 > 100 µM | HT-29 61.7 µM | KM12 > 100 µM | M14 > 100 µM | NCI-H226 > 100 µM | NCI-H522 > 100 µM | SF-539 > 100 µM | SK-OV-3 > 100 µM | SNB-19 > 100 µM | SNB-75 > 100 µM | SW-620 > 100 µM | U-251 > 100 µM | UACC-62 > 100 µM

Clc1ccc(C2=NOC3C4CCC(C4)C23)cc1 (centres undefined)
inactive: A549 > 100 µM | ACHN > 100 µM | CCRF-CEM > 100 µM | COLO 205 > 100 µM | EKVX > 100 µM | HCT-116 > 100 µM | HT-29 > 100 µM | KM12 > 100 µM | M14 > 100 µM | NCI-H226 > 100 µM | NCI-H522 59.8 µM | RPMI-8226 87.1 µM | SF-539 > 100 µM | SK-OV-3 > 100 µM | SNB-19 > 100 µM | SNB-75 > 100 µM | SW-620 > 100 µM | U-251 > 100 µM | UACC-62 > 100 µM

NC(Cc1ccccc1)C(=O)OCN1C(=O)C2C3C=CC(C2C1=O)C1C2C(=O)N(COC(=O)C(N)Cc4ccccc4)C(=O)C2C31 (centres undefined)
inactive: A549 23.2 µM | ACHN 26.5 µM | CCRF-CEM 22.8 µM | COLO 205 17.9 µM | HCT-116 23 µM | HT-29 31.8 µM | KM12 20.7 µM | LOX IMVI 18.7 µM | M14 19.5 µM | NCI-H226 27.7 µM | RPMI-8226 18.7 µM | SF-539 22.5 µM | SK-OV-3 27.9 µM | SNB-19 43.1 µM | SNB-75 26.2 µM | SW-620 23.3 µM | U-251 17.3 µM | UACC-62 20.7 µM

CCOC(=O)NC(=O)c1cn(CC(=O)NCC(=O)NCC(=O)N2CCN(CCn3c(C)nc(C(N)=O)c3N)CC2)c(=O)[nH]c1=O
inactive: A549 > 100 µM | ACHN > 100 µM | CCRF-CEM > 100 µM | COLO 205 > 100 µM | HCT-116 > 100 µM | HT-29 > 100 µM | KM12 > 100 µM | LOX IMVI > 100 µM | M14 > 100 µM | SF-539 > 100 µM | SK-OV-3 > 100 µM | SNB-19 > 100 µM | SNB-75 > 100 µM | SW-620 > 100 µM | U-251 > 100 µM | UACC-62 > 100 µM

O/N=C(/C(Cl)=C(Cl)Cl)C(Cl)Cl
inactive: A549 > 100 µM | ACHN 17.9 µM | CCRF-CEM 12.4 µM | COLO 205 20.7 µM | EKVX 42.5 µM | HCT-116 17.9 µM | HT-29 16.7 µM | KM12 22.4 µM | LOX IMVI 17.2 µM | M14 20.2 µM | NCI-H226 31 µM | RPMI-8226 14.2 µM | SF-539 21.5 µM | SK-OV-3 28.8 µM | SNB-19 31.5 µM | SNB-75 19 µM | SW-620 20.4 µM | U-251 19.5 µM | UACC-62 24.7 µM

Oc1ccc2c(c1)CCc1c-2n(CCN2CCOCC2)c2ccc(O)cc12
inactive: ACHN 16.1 µM | CCRF-CEM 38.2 µM | COLO 205 56.2 µM | EKVX 38.8 µM | HCT-116 41.3 µM | KM12 20.8 µM | LOX IMVI 41.2 µM | M14 39 µM | NCI-H226 22.8 µM | RPMI-8226 29.1 µM | SF-539 27.9 µM | SK-OV-3 46.3 µM | SNB-19 25.1 µM | SNB-75 16.8 µM | SW-620 44.9 µM | U-251 35.9 µM | UACC-62 20.6 µM

Brc1ccc(/N=c2/nc3ccccn3n3nc(-c4ccccc4)cc23)cc1
inactive: A549 56.5 µM | ACHN 26.2 µM | CCRF-CEM > 100 µM | COLO 205 > 100 µM | EKVX 47.6 µM | HCT-116 52.6 µM | HT-29 75.5 µM | KM12 39.9 µM | M14 13.7 µM | NCI-H226 45.2 µM | NCI-H522 17.3 µM | RPMI-8226 > 100 µM | SF-539 28.3 µM | SK-OV-3 > 100 µM | SNB-19 28.5 µM | SNB-75 52.4 µM | SW-620 63.2 µM | U-251 29 µM | UACC-62 15.1 µM

O=c1[nH]nc2ccccc2c1Cl
inactive: A549 29.3 µM | ACHN 16.3 µM | CCRF-CEM 6.14 µM | COLO 205 11.4 µM | EKVX 4.29 µM | HCT-116 16.3 µM | HT-29 6.68 µM | KM12 9.44 µM | LOX IMVI 17.6 µM | M14 12.3 µM | NCI-H226 24.6 µM | RPMI-8226 3.13 µM | SF-539 15.6 µM | SK-OV-3 17.7 µM | SNB-19 16.1 µM | SNB-75 10.7 µM | SW-620 13.8 µM | U-251 15.8 µM | UACC-62 12.8 µM

O=c1[nH]c(-c2ccccc2)nc2cc([N+](=O)[O-])c(/C(Cl)=C/c3ccccc3)cc12
inactive: A549 23.2 µM | ACHN 68.2 µM | COLO 205 21.5 µM | EKVX 46.5 µM | HCT-116 21 µM | HT-29 > 10 µM | KM12 26.2 µM | NCI-H226 > 100 µM | NCI-H522 17.3 µM | RPMI-8226 16.1 µM | SF-539 25.2 µM | SK-OV-3 27.3 µM | SNB-19 41 µM | SNB-75 22.3 µM | SW-620 23.6 µM | U-251 28.6 µM | UACC-62 15.1 µM

Nc1ccc2c(c1)Oc1c(F)c(F)cc3c(=O)c(C(=O)O)cn-2c13
inactive: A549 32.9 µM | CCRF-CEM 33 µM | COLO 205 45 µM | EKVX > 100 µM | HCT-116 24.2 µM | HT-29 35.2 µM | KM12 23.6 µM | M14 81.5 µM | NCI-H522 29.9 µM | RPMI-8226 25.2 µM | SF-539 39.2 µM | SK-OV-3 > 100 µM | SNB-19 35.2 µM | SW-620 41.3 µM | U-251 34.2 µM | UACC-62 31.3 µM

CCOC(=O)CCC(NC(=O)c1ccc(Nc2nc3cc(C(F)(F)F)ccc3nc2-c2ccccc2)cc1)C(=O)OCC (centres undefined)
inactive: A549 > 100 µM | ACHN 21 µM | CCRF-CEM 27.8 µM | COLO 205 22.4 µM | EKVX 20.2 µM | HCT-116 26.4 µM | HT-29 25.8 µM | KM12 17.7 µM | LOX IMVI 19.8 µM | M14 > 100 µM | NCI-H226 20.7 µM | RPMI-8226 24.7 µM | SF-539 31.3 µM | SK-OV-3 30.5 µM | SNB-19 21.5 µM | SNB-75 15.2 µM | SW-620 30.5 µM | U-251 25.3 µM | UACC-62 13.3 µM

Cc1cc(Br)c(O)c(-c2cscn2)c1
inactive: A549 20.2 µM | ACHN 14 µM | CCRF-CEM 6.55 µM | COLO 205 18 µM | EKVX 33.1 µM | HCT-116 12.6 µM | HT-29 27.3 µM | LOX IMVI 10.2 µM | M14 23.6 µM | RPMI-8226 4.81 µM | SF-539 20 µM | SK-OV-3 54.6 µM | SNB-19 15.2 µM | SW-620 12.3 µM | UACC-62 12.7 µM

O=S(=O)(O)c1ccc2cccc(/N=N\c3c(O)ccc4ccccc34)c2c1
inactive: A549 > 100 µM | ACHN > 100 µM | CCRF-CEM > 100 µM | COLO 205 > 100 µM | EKVX > 100 µM | HCT-116 > 100 µM | KM12 > 100 µM | M14 > 100 µM | NCI-H226 > 100 µM | NCI-H522 > 100 µM | SF-539 > 100 µM | SK-OV-3 > 100 µM | SNB-19 > 100 µM | SNB-75 > 100 µM | SW-620 > 100 µM | U-251 > 100 µM | UACC-62 > 100 µM

O=C(O)Cn1ccc(=O)c2ccc([N+](=O)[O-])cc21
inactive: A549 > 100 µM | ACHN > 100 µM | CCRF-CEM > 100 µM | COLO 205 > 100 µM | HCT-116 > 100 µM | HT-29 > 100 µM | KM12 > 100 µM | M14 > 100 µM | NCI-H226 > 100 µM | NCI-H522 > 100 µM | SF-539 > 100 µM | SK-OV-3 > 100 µM | SNB-19 > 100 µM | SNB-75 38.4 µM | SW-620 > 100 µM | U-251 > 100 µM | UACC-62 > 100 µM

COc1ccc2c(c1)/C(=C\c1c(Cl)n(-c3ccccc3)c3ccccc13)C(=O)N2
inactive: A549 4.34 µM | ACHN 9.18 µM | CCRF-CEM 3.85 µM | COLO 205 3.61 µM | EKVX 5.86 µM | HCT-116 2.99 µM | HT-29 3.48 µM | KM12 3.18 µM | LOX IMVI 6.44 µM | M14 3.2 µM | NCI-H226 2.28 µM | RPMI-8226 1.38 µM | SF-539 2.98 µM | SK-OV-3 7.36 µM | SNB-19 3.67 µM | SNB-75 6.59 µM | SW-620 4.75 µM | U-251 4.19 µM | UACC-62 5.89 µM
